# Measurements taken from patent publication US8546611B2 (priority 2008, dated 2013).
# Where two headings read alike, the source gives them in different places.
# Key:
# [1] = tested on: erythroid cells isolated from the bone marrow of laboratory mice males; settings: feed with succinic acid 20 mg/kg body wt., not irradiated, norm 5.0±1.0
# Experimental: The test for genotoxicity was performed on young laboratory mice males (18-20 g; 6 animals in each group). […] The control animals were given water.
# Wistar rat males = settings: for adaptogenic properties, conclusion in words: 6-hour immobilization stress, Wistar rats; for Eosinophils, 6 h after / Lymphocytes, 6 h after / Number of leukocytes in 1 μl of blood, 6 h after / Segmentated cells, 6 h after: 6 h after immobilization; for Eosinophils, 6 h after / Lymphocytes, 6 h after / Number of leukocytes in 1 μl of blood, 6 h after / Segmentated cells, 6 h after / Eosinophils, before / Lymphocytes, before / Number of leukocytes in 1 μl of blood, before / Segmentated cells, before: 1.5 ml of 1% succinic acid perorally 10 min prior; for Eosinophils, before / Lymphocytes, before / Number of leukocytes in 1 μl of blood, before / Segmentated cells, before: at the moment of immobilization
# [2] = tested on: patients with cardiac insufficiency; settings: for patients of functional class I, day 30 / patients of functional class II, day 30 / patients of functional class III, day 30 / patients of functional class IV, day 30 / patients of functional class I, day 60 / patients of functional class II, day 60 / patients of functional class III, day 60 / patients of functional class IV, day 60 / patients of functional class I, day 90 / patients of functional class II, day 90 / patients of functional class III, day 90 / patients of functional class IV, day 90: 100 mg twice per day with standard therapy; for patients of functional class I, day 30 / patients of functional class II, day 30 / patients of functional class III, day 30 / patients of functional class IV, day 30: after 30 days; for patients of functional class I, day 60 / patients of functional class II, day 60 / patients of functional class III, day 60 / patients of functional class IV, day 60: after 60 days; for patients of functional class I, day 90 / patients of functional class II, day 90 / patients of functional class III, day 90 / patients of functional class IV, day 90: after 90 days; for cardiotonic properties / dynamics of functional class, conclusion in words / patients of functional class I, day 0 / patients of functional class II, day 0 / patients of functional class III, day 0 / patients of functional class IV, day 0: 100 mg twice per day, 3 months; for patients of functional class I, day 0 / patients of functional class II, day 0 / patients of functional class III, day 0 / patients of functional class IV, day 0: with standard therapy, before treatment
# white rat females = settings: in vivo; for Total died: 14 days
# [3] = compared with “natural” SA
# [4] = tested on: erythroid cells isolated from the bone marrow of gamma-irradiated laboratory mice males; test: Radioprotective properties (micronucleus test after gamma irradiation); settings: for radioprotective effect, conclusion in words: gamma rays 1.3 Gy, 20 mg/kg body wt., 48 h, 20 mg/kg; for Number of micronuclei per 2000 cells (radioprotective properties): mice irradiated with gamma rays 1.3 Gy, then fed 48 h succinic acid 20 mg/kg body wt., critical value 16±2
SMILES,Number of micronuclei per 2000 cells (genotoxicity) [1],"adaptogenic properties, conclusion in words (Wistar rat males)","patients of functional class I, day 30 [2]","patients of functional class II, day 30 [2]","patients of functional class III, day 30 [2]","patients of functional class IV, day 30 [2]","patients of functional class I, day 60 [2]","patients of functional class II, day 60 [2]","patients of functional class III, day 60 [2]","patients of functional class IV, day 60 [2]","patients of functional class I, day 90 [2]","patients of functional class II, day 90 [2]","patients of functional class III, day 90 [2]","patients of functional class IV, day 90 [2]","cardiotonic properties / dynamics of functional class, conclusion in words [2]","patients of functional class I, day 0 [2]","patients of functional class II, day 0 [2]","patients of functional class III, day 0 [2]","patients of functional class IV, day 0 [2]","Total died (white rat females; female, 5000 mg/kg)",other results
"O=C(O)CCC(=O)O [Example 2, succinic acid, reference compound]",5.5 ± 1.0,slight adaptogenic properties,8,7,5,0,8,8,4,0,8,8,4,0,slight positive dynamics,8,7,5,0,0,"Eosinophils, 6 h after (Wistar rat males; listed as Ex. 2): 0%; Lymphocytes, 6 h after (Wistar rat males; listed as Ex. 2): 70 ± 5%; Number of leukocytes in 1 μl of blood, 6 h after (Wistar rat males; listed as Ex. 2): 7700; Segmentated cells, 6 h after (Wistar rat males; listed as Ex. 2): 30 ± 3%; Eosinophils, before (Wistar rat males; listed as Ex. 2): 2 ± 2%; Lymphocytes, before (Wistar rat males; listed as Ex. 2): 76 ± 4%; Number of leukocytes in 1 μl of blood, before (Wistar rat males; listed as Ex. 2): 5700; Segmentated cells, before (Wistar rat males; listed as Ex. 2): 21 ± 4%; animals died, extra test with doubled dose (white rat females; 10000 mg/kg): Not a single animal died; biological activity, overall conclusion in words [3]: do not possess high biological activity; radioprotective effect, conclusion in words [4]: no evident radioprotective effect; Number of micronuclei per 2000 cells (radioprotective properties) [4]: 22.5 ± 1.0"
"O=C(O)CCC(=O)O [Example 3, succinic acid, reference compound]",5.0 ± 0.6,at the “borderline”,9,7,4,0,9,7,4,0,10,7,3,0,more expressed,8,7,5,0,2,"Eosinophils, 6 h after (Wistar rat males; listed as Ex. 3): 0.5 ± 4%; Lymphocytes, 6 h after (Wistar rat males; listed as Ex. 3): 73 ± 5%; Number of leukocytes in 1 μl of blood, 6 h after (Wistar rat males; listed as Ex. 3): 7100; Segmentated cells, 6 h after (Wistar rat males; listed as Ex. 3): 26 ± 3%; Eosinophils, before (Wistar rat males; listed as Ex. 3): 2 ± 6%; Lymphocytes, before (Wistar rat males; listed as Ex. 3): 76 ± 6%; Number of leukocytes in 1 μl of blood, before (Wistar rat males; listed as Ex. 3): 5700; Segmentated cells, before (Wistar rat males; listed as Ex. 3): 22 ± 3%; died, 14 day (white rat females; female, 5000 mg/kg, 14 day): 2; biological activity, overall conclusion in words [3]: higher activity but it is far from that of “natural” SA; radioprotective effect, conclusion in words [4]: close to the dividing line; Number of micronuclei per 2000 cells (radioprotective properties) [4]: 16.0 ± 1.6"
